As usually defined, the IC50 is the concentration at which inhibition is half-maximal. A lower IC50 goes with greater potency.

This test addresses T1, Glucocorticoid receptor (Homo sapiens, UniProt P04150).
T1 sequence (P04150 whole entry): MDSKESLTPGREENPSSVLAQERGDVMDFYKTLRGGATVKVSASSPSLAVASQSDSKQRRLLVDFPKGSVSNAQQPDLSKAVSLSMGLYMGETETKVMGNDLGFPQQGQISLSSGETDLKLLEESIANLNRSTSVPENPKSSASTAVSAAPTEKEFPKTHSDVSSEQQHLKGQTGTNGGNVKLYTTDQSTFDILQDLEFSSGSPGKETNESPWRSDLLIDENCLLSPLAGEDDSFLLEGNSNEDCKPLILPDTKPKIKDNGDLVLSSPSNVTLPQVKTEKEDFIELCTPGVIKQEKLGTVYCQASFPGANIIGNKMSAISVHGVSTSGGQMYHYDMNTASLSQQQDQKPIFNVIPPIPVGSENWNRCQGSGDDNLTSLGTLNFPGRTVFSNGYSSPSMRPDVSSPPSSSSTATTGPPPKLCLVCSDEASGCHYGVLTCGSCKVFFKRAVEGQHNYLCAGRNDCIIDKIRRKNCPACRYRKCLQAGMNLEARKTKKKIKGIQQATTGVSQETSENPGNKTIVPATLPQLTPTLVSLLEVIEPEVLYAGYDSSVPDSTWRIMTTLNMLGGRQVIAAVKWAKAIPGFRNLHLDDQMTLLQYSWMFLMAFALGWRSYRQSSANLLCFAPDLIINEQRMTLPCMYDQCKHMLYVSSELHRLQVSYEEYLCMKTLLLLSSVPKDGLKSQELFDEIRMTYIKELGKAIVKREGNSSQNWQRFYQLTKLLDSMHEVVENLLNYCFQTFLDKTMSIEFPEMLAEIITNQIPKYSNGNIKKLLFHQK
Description: Binding affinity to human glucocorticoid receptor by fluorescence polarization competitive binding assay
With `OC(c1ccc2c(cnn2-c2ccc(F)cc2)c1)(c1ccccc1F)C(F)(F)F` (stereo unspecified), the IC50 is 54 nM.
As for `OC(c1ccc2c(cnn2-c2ccc(F)cc2)c1)(c1ccccc1Cl)C(F)(F)F` (stereo unspecified), the IC50 worked out at 35 nM.
As for `OC(c1cccc(Cl)c1)(c1ccc2c(cnn2-c2ccc(F)cc2)c1)C(F)(F)F` (stereo unspecified), the figure is 72 nM; as for `N#Cc1cccc(C(O)(c2ccc3c(cnn3-c3ccc(F)cc3)c2)C(F)(F)F)c1` (stereo unspecified), 99 nM.
The same measure for `N#Cc1cc(C(O)(c2ccc3c(cnn3-c3ccc(F)cc3)c2)C(F)(F)F)ccc1F` (stereo unspecified): 30 nM.
As for `OC(c1ccc(Cl)c(Cl)c1)(c1ccc2c(cnn2-c2ccc(F)cc2)c1)C(F)(F)F` (stereo unspecified), the figure is 178 nM; as for `Cc1cccc(C(O)(c2ccc3c(cnn3-c3ccc(F)cc3)c2)C(F)(F)F)c1` (stereo unspecified), 52 nM.
In the case of `OC(c1ccc(F)cc1)c1ccc2c(cnn2-c2ccc(F)cc2)c1` (stereo unspecified), the 50% inhibitory concentration (IC50) was 10000 nM.
For `Cc1ccccc1C(O)(c1ccc2c(cnn2-c2ccc(F)cc2)c1)C(F)(F)F` (stereo unspecified), half-maximal inhibition (IC50) required 282 nM.
As for `CC(O)(c1ccc(F)cc1)c1ccc2c(cnn2-c2ccc(F)cc2)c1` (stereo unspecified), the figure is 2110 nM; as for `Cc1ccc(C(O)(c2ccc3c(cnn3-c3ccc(F)cc3)c2)C(F)(F)F)cc1` (stereo unspecified), 2090 nM; as for `OC(c1ccc(F)cc1)(c1ccc2c(cnn2-c2ccc(F)cc2)c1)C(F)(F)F` (single isomer, unassigned; (+)) [2,2,2-TRIFLUORO-1-(4-FLUOROPHENYL)-1-(1-(4-FLUOROPHENYL)-1H-INDAZOL-5-YL)ETHANOL (DIASTEREOMERIC MIX)], 3000 nM.
As to `OC(c1ccc(F)cc1)(c1ccc2c(cnn2-c2ccc(F)cc2)c1)C(F)(F)F` (single isomer, unassigned; (-)) [2,2,2-TRIFLUORO-1-(4-FLUOROPHENYL)-1-(1-(4-FLUOROPHENYL)-1H-INDAZOL-5-YL)ETHANOL (DIASTEREOMERIC MIX)], the IC50 stood at 86 nM.
As for `OC(c1ccc(F)cc1)(c1ccc2c(cnn2-c2ccc(F)cc2)c1)C(F)(F)F` (stereo in doubt; 12) [2,2,2-TRIFLUORO-1-(4-FLUOROPHENYL)-1-(1-(4-FLUOROPHENYL)-1H-INDAZOL-5-YL)ETHANOL (DIASTEREOMERIC MIX)], the figure is 161 nM; as for `OC(c1ccc(F)c(Cl)c1)(c1ccc2c(cnn2-c2ccc(F)cc2)c1)C(F)(F)F` (stereo in doubt; 18) [1-(3-CHLORO-4-FLUOROPHENYL)-2,2,2-TRIFLUORO-1-(1-(4-FLUOROPHENYL)-1H-INDAZOL-5-YL)ETHANOL (ENANTIOMERIC MIX)], 117 nM; as for `OC(c1ccc2c(cnn2-c2ccc(F)cc2)c1)(c1cccc(Cl)c1Cl)C(F)(F)F` (stereo in doubt; 23) [1-(2,3-DICHLOROPHENYL)-2,2,2-TRIFLUORO-1-(1-(4-FLUOROPHENYL)-1H-INDAZOL-5-YL)ETHANOL (ENANTIOMERIC MIX)], 87 nM.

(Values after ChEMBL document CHEMBL1157802, “5-Functionalized indazoles as glucocorticoid receptor agonists” (Bioorg Med Chem Lett, 2010).)
